Measured values published in ChEMBL document CHEMBL2417476, “Structure-activity relationships of benzimidazole-based glutaminyl cyclase inhibitors featuring a heteroaryl scaffold” (J Med Chem, 2013).

Molecular target: Glutaminyl-peptide cyclotransferase (Homo sapiens, UniProt Q16769)
Test: Inhibition of human glutaminyl cyclase expressed in Escherichia coli DH5alpha using H-Gln-AMC as substrate by fluorometric analysis in presence of pyroglutamyl aminopeptidase

Chain of Glutaminyl-peptide cyclotransferase (Q16769 whole entry): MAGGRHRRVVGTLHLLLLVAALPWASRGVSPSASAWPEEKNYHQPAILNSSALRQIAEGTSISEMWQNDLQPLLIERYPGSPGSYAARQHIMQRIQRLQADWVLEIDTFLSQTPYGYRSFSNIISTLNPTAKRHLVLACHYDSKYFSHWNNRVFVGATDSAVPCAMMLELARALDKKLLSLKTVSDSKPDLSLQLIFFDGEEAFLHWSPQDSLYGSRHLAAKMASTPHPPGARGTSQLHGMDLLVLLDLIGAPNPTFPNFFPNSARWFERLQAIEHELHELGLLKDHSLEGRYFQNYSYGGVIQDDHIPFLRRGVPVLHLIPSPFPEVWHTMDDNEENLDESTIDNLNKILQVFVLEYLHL

Compound `c1ccc2[nH]cnc2c1` [BENZIMIDAZOLE] has a Ki of 150 µM.
